Experimental data from patent US20170296505A1, “LONG-CHAIN CARBOXYCHROMANOLS AND ANALOGS FOR USE AS ANTI-INFLAMMATORY AGENTS” (Purdue Research Foundation, priority 2008, published 2017).
Where two headings read alike, the source gives them in different places. One block for each molecule: values may come before it.

Assays:
COX-2 [1] = target: T1, COX-2 (Homo sapiens, UniProt P35354); assay: COX-2 activity assay using purified enzyme; assay type: biochemical; parameters: purchased Cayman Chemicals (Ann Arbor, Mich.); conditions: at 250 μM
T1 sequence (P35354 18-604): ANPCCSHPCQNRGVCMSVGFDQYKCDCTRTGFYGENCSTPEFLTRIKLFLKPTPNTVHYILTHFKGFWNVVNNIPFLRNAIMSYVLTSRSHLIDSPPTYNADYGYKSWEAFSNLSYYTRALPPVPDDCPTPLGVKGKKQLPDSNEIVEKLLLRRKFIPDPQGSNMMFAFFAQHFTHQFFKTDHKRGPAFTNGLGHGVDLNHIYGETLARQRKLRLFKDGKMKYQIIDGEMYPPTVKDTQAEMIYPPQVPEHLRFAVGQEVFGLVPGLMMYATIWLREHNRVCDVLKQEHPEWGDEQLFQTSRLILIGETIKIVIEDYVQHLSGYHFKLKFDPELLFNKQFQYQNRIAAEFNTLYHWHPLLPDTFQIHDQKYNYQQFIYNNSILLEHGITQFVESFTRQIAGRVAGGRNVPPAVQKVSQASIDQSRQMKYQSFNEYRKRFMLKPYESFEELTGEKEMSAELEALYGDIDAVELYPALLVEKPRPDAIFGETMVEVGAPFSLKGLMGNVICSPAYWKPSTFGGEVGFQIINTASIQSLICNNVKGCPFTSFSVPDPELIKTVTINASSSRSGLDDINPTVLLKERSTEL
Protocol: (§1) COX-1 and COX -2 activity assay using purified enzymes—The enzymatic reactions were performed in 0.1M Tris (pH 8.0), in the presence of 5 mM EDTA, 2 mM phenol, and 1 μM heme. […] Enzymatic reactions were initiated by addition of AA at a final concentration of 5 μM for 2 min. The reaction was stopped by addition of 0.1 M HCl. Stannous chloride in 0.1 M HCl was then added to reduce PGG2 and PGH2 to PGF2a. After addition of 0.5 vol of […] NaCl, prostaglandins formed in the reaction were extracted using 2.5 vol of ethyl acetate and the organic layer was completely dried under N2. PGF2a, and PGE2 were quantified using ELISA assays from Cayman Chemicals.

ovine COX-1 = target: T2, ovine COX-1 (Ovis aries, UniProt P05979); assay: COX-1 activity assay using purified enzyme; assay type: biochemical
T2 construct: purchased Cayman Chemicals (Ann Arbor, Mich.)
T2 sequence (P05979 25-600): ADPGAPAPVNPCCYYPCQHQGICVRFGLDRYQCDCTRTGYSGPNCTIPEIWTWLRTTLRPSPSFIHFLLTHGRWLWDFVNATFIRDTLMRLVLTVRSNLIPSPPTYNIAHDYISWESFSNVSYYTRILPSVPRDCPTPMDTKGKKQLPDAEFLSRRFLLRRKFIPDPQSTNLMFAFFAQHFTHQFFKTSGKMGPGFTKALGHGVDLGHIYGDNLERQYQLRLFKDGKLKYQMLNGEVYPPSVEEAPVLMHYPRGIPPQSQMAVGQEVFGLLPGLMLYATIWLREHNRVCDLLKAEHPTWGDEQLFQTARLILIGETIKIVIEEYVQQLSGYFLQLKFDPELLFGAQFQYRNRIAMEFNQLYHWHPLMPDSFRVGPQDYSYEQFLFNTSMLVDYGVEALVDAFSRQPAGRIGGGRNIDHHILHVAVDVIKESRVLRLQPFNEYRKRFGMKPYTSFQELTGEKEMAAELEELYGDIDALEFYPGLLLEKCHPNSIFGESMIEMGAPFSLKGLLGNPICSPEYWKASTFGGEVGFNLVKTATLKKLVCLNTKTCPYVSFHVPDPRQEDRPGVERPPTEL
Protocol: as §1

[2] = test system: PGE2 in IL-1β treated A549 cells; assay: PGE2 generation during chronic IL-1β treatment; assay type: cell-based, human; conditions: for IC50: read-out: concentration to cause 50% inhibition of PGE2, in the presence of exogenous AA (5 μM, 5 min) after co-incubation with IL-1β
Protocol: A549 cells were pre-incubated with different concentrations of tocopherols in the presence or absence of 1 μM sesamin for 15 h, and then treated with IL-1β (2 ng/mL) for 24 h. PGE2 in the cell-culture media was measured by ELISA assays. Results are the averages of three independent experiments and expressed as Mean±SEM.
A549 cells were pre-incubated with different concentrations of tocotrienols in the presence or absence of 1 μM sesamin for 15 h, and then treated with IL-1β (2 ng/mL) for 24 h. PGE2 in the cell-culture media was measured by ELISA assays. Results are the averages of three independent experiments and expressed as Mean±SEM.
PGE2 generation during chronic IL-1β treatment—2.5−3×10^5 A549 cells per well were seeded in RPMI-1640 with 10% of FBS and allowed to attach overnight in a 24-well plate. Vitamin E stock solutions were initially made in DMSO and then diluted in 10 mg/mL of bovine serum albumin. Confluent cells were incubated in DMEM containing 1% FBS with DMSO (control) or vitamin E forms for 14-16 h and then 2 ng/ml of IL-1β was introduced for 24 hours. The medium was then collected and PGE2 accumulation was measured using ELISA assay from Cayman Chemicals (Ann Arbor, Mich.).
Statistical analysis—The unpaired student's t-test was used in the statistical analysis. All results are expressed as mean±SD. Activation of human lung epithelial A549 cells by IL-1β leads to a strong up-regulation of COX-2 protein expression and almost 100-fold increase of PGE2 generation. This cellular system has been employed to evaluate inhibitory potency of anti-inflammatory drugs, including COX inhibitors and was previously used by us to study the effect of α-T, γ-T and γ-CEHC on PGE2 formation (13, 20). […] Inhibition of PGE2 by γ-T, and γ-TE was also observed in the presence of exogenous AA, where after co-incubated with vitamin E forms and IL-1β, cells were incubated with fresh media containing 5 μM of AA for 5 min.

[3] = test system: IL-1beta-stimulated PGE2 formation in A549 cells; assay: IL-1beta-stimulated PGE2 formation with or without sesamin (Table 4); assay type: cell-based, human; conditions: IL-1beta 2 ng/ml, 8 h; 13′-COOH 2.5 uM, sesamin 1 uM
Protocol: Briefly, A549 cells were stimulated with IL-1beta (2 ng/ml) in the presence of DMSO (ctrl, 0.1%), control with sesamin (1 uM), 13′-COOH (structure 1) at 2.5 uM, 13′-COOH with sesamin (1 uM). Basal control was cells incubated with medium without IL-1beta. Eight hours later, media were collected and PGE2 was measured by ELISA.

A549 cells [4] = assay: Metabolites of vitamin E forms in A549 conditioned media (HPLC); assay type: in vitro ADME, human; conditions: 20 μM
Protocol: FIG. 3A illustrates that unconjugated long-chain carboxychromanols but not sulfated derivatives inhibited COX-2 activity in intact cells. […] Sulfated metabolites were the sum of 9′S, 11′S and 13′S, and unconjugated metabolites are the sum of 9′, 11′ and 13′. Conditioned media were obtained by incubation of A549 cells with γ-TE at 20 μM for 24, 48 and 72 h. Metabolites were extracted and measured using HPLC assay. The conditioned media were then used for the activity assay as described in FIG. 2A and 2B. Unsulfated/sulfated is the ratio of the sum of 9′, 11′ and 13′ to that of 9′S, 11′S and 13′S. All the results are expressed as Mean±SD. […]
Quantitation of vitamin E metabolites in conditioned media—Long-chain carboxychromanols and their sulfated counterparts were quantitated by a HPLC assay with fluorescent detection (17). […]
Extracted metabolites were separated using HPLC and detected by a Shimadzu RF-10AXL spectrofluorometric detector (Shimadzu, Columbia, Md.) with the excitation and emission wavelength at 292 nm and 327 nm, respectively. […] Long-chain metabolites were quantified using tocopherols as the external standards with a correction factor based on the linear relationship between fluorescent intensity and solvent content (17).

A549 cells [5] = assay: Cell viability of confluent A549 cells (MTT); assay type: cell-based, human; conditions: 100% confluent cells, 1% FBS
COX-2 [6] = target: T1, COX-2; assay: COX-2 inhibition with purified human enzyme (Table 3); assay type: biochemical; parameters: A549 cells were pre-treated with 0.5-1 ng/mL of IL-1β- for 6 hours to induce COX-2 expression; endogenous in cells; conditions: mean±SEM
Text: Free radical biology & medicine 95, 190-199. Results are mean±SEM based on four or more independent experiments.

5-LOX = target: T3, 5-LOX (Homo sapiens, UniProt P09917); assay: 5-LOX inhibition with purified human enzyme (Table 3); assay type: biochemical; conditions: mean±SEM
T3 sequence (P09917 1-674): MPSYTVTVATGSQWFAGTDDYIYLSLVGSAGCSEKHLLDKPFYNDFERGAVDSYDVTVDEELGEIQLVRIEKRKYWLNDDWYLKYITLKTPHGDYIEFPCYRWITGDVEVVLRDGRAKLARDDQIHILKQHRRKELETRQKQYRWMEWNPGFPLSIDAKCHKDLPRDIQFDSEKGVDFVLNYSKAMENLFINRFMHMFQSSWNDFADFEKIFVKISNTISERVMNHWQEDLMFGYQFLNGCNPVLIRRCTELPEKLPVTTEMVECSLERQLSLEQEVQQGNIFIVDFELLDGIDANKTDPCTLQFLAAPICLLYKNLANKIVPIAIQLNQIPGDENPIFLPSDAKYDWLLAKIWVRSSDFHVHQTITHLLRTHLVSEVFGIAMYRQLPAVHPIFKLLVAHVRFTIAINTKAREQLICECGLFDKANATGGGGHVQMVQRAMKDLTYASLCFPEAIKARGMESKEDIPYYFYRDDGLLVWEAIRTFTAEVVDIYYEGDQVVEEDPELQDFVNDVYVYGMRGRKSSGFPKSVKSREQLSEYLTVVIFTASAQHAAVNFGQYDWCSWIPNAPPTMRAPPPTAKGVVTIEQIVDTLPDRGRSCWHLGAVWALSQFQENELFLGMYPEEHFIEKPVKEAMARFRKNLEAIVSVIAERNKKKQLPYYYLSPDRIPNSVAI
Text: Results are mean±SEM based on four or more independent experiments.

[7] = LC-MS analysis of fecal samples of mice fed δTE-13′; assay type: in vivo; conditions: mice fed with δTE-13′
Text: FIG. 6. Detection of δTE-13′-1 in fecal samples.

SMILES: CC(=O)Nc1ccc(O)cc1 [Acetaminophen, reference compound]
inhibition of COX-2 (COX-2 [1]): did not significantly inhibit
inhibition of COX-1 (ovine COX-1; at 250 μM): did not significantly inhibit
IC50 COX-1 (ovine COX-1; purified enzyme, Not inhibit: 9′ at 20 μM, acetaminophen at 250 μM): Not inhibit*

SMILES: c1cc2c(cc1[C@H]1OC[C@H]3[C@@H]1CO[C@@H]3c1ccc3c(c1)OCO3)OCO2 [sesamin, reference compound]
effect on PGE2 generation ([2]; sesamin alone at 1 μM): did not affect
PGE2 [3]: 12.46 ± 1.4 ng/mL

SMILES: CC(C)=CCC/C(C)=C/CC/C(C)=C/CC[C@]1(C)CCc2c(C)c(O)c(C)c(C)c2O1 [α-TE, α-Tocotrienol]
inhibition of PGE2 formation ([2]; at 20 μM, A549 cells co-treated with IL-1β): 20%

SMILES: CC(C)=CCC/C(C)=C/CC/C(C)=C/CC[C@]1(C)CCc2cc(O)c(C)c(C)c2O1 [γ-TE, γ-tocotrienol]
share of metabolites that are sulfated carboxychromanols (A549 cells [4]; 72-h incubation): more than 85%
share of metabolites that are unconjugated carboxychromanols (A549 cells [4]; first 24-h incubation): 90%
cell viability (MTT, cell morphology) (A549 cells [5]; 20 μM): did not show significant effects
effect of sesamin on the inhibitory potency on PGE2 ([2]; in the presence of 1 μM sesamin): moderately diminished
IC50 [2]: 10 µM

Now from value to molecule, other results behind:

IC50 (COX-2 [6]): > 50 µM
IC50 ([2]; Homo sapiens, A549, 5 min): 25 µM
IC50 (5-LOX): > 50 µM
SMILES: Cc1c(O)cc2c(c1C)OC(C)(CCCC(C)CCCC(C)CCCC(C)C)CC2 (centres unmarked) [γ-T]
cell viability (MTT, cell morphology) (A549 cells [5]; 25-50 μM): did not show significant effects

IC50 (COX-2 [6]): > 50 µM
IC50 ([2]; Homo sapiens, A549, 5 min): 10 µM
IC50 (5-LOX): > 50 µM
SMILES: Cc1cc(O)cc2c1OC(C)(CCCC(C)CCCC(C)CCCC(C)C)CC2 (centres unmarked) [δ-T]
cell viability (MTT, cell morphology) (A549 cells [5]; 25-50 μM): did not show significant effects

formation in fecal samples [7]: detected
SMILES: C/C(=C\CCC1(C)CCc2cc(O)cc(C)c2O1)CC/C=C(\C)CCCC(C)C(=O)O (centres unmarked) [δTE-13′-1]
